Measured values as given in paper PMC10850145, “Hormonal steroids induce multidrug resistance and stress response genes in Neisseria gonorrhoeae by binding to MtrR” (Nature Communications, 2024).
Several values for one entry are separate records, joined by “and”; a condition that tells them apart may be missing. Equal entries are not always repeated. Where two headings read alike, the source gives them in different places.

Experiments:
mtrC-lacZ expression = type: cell-based, Neisseria gonorrhoeae; settings: for Miller units: single well; for mtrC-lacZ β-galactosidase activity, Mean: left block of sheet (mtrCDE)
MtrR D171A = target: T1, MtrR D171A (Neisseria gonorrhoeae, UniProt P39897, D171A); assay: biochemical; type: binding; settings: ITC
T1 construct: Hexa-histidine tag with TEV protease cleavage site (N, cleaved yes); made in house; host or cells: E. coli Rosetta Gami B(DE3) pLysS

[1] = second block of sheet (c39-c76), ΔmtrR + mtrR R176E in trans, 6.25 µM
[2] = second block of sheet (c39-c76), ΔmtrR + mtrR R176E in trans, 12.5 µM
[3] = second block of sheet (c39-c76), ΔmtrR + mtrR R176E in trans, 25 µM
[4] = second block of sheet (c39-c76), ΔmtrR + mtrR R176E in trans, 50 µM

T1 sequence (P39897 whole entry D171A): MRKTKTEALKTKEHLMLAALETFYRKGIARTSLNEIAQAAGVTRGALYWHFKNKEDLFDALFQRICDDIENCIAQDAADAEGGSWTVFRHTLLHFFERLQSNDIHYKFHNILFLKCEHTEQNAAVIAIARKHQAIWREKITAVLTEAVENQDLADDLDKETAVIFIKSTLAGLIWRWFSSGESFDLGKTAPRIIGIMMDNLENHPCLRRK

Compound: C[C@]12CC[C@@H]3c4ccc(O)cc4CC[C@H]3[C@@H]1CC[C@@H]2O [β-Estradiol, β-estradiol]
- β-galactosidase activity, individual replicate (mtrC-lacZ expression; mtrR WT in cis, 50 µM hormone, single replicate values, second (right) block): 113 Miller units and 109 Miller units
- β-galactosidase activity, Miller units (single replicate) (mtrC-lacZ expression; mtrR WT in cis, 50 µM, first data set (c15-c36)): 196 Miller units and 185 Miller units and 161 Miller units
- β-galactosidase activity, Miller units (single replicate) (mtrC-lacZ expression; mtrR WT in cis, 50 µM, second data set (c53-c74)): 92 Miller units and 82 Miller units
- β-galactosidase activity, Mean (mtrC-lacZ expression; [1]): 80 Miller units
- β-galactosidase activity, single replicate (mtrC-lacZ expression; [1]): 96 Miller units and 78 Miller units and 89 Miller units and 60 Miller units
- β-galactosidase activity, Mean (mtrC-lacZ expression; [2]): 81 Miller units
- β-galactosidase activity, single replicate (mtrC-lacZ expression; [2]): 106 Miller units and 86 Miller units and 70 Miller units and 62 Miller units
- β-galactosidase activity, Mean (mtrC-lacZ expression; [3]): 94 Miller units
- β-galactosidase activity, single replicate (mtrC-lacZ expression; [3]): 126 Miller units and 96 Miller units and 86 Miller units and 68 Miller units
- β-galactosidase activity, Mean (mtrC-lacZ expression; [4]): 89 Miller units
- β-galactosidase activity, single replicate (mtrC-lacZ expression; [4]): 107 Miller units and 93 Miller units and 84 Miller units and 73 Miller units
- Miller units (mtrC-lacZ expression; plate rows 1-4, plate columns 1-6 (first strain), 6.25 µM hormone): 104 Miller units and 79 Miller units and 90 Miller units and 61 Miller units
- Miller units (mtrC-lacZ expression; plate rows 1-4, plate columns 1-6 (first strain), 12.5 µM hormone): 145 Miller units and 115 Miller units and 112 Miller units and 81 Miller units
- Miller units (mtrC-lacZ expression; plate rows 1-4, plate columns 1-6 (first strain), 25 µM hormone): 166 Miller units and 152 Miller units and 162 Miller units and 114 Miller units
- Miller units (mtrC-lacZ expression; plate rows 1-4, plate columns 1-6 (first strain), 50 µM hormone): 161 Miller units and 192 Miller units and 168 Miller units and 126 Miller units
- Miller units (mtrC-lacZ expression; plate rows 1-4, plate columns 7-12 (second strain), 12.5 µM hormone): 165 Miller units and 161 Miller units and 99 Miller units
- Miller units (mtrC-lacZ expression; plate rows 1-4, plate columns 7-12 (second strain), 25 µM hormone): 232 Miller units and 177 Miller units and 156 Miller units and 133 Miller units
- Miller units (mtrC-lacZ expression; plate rows 1-4, plate columns 7-12 (second strain), 50 µM hormone): 195 Miller units and 178 Miller units and 151 Miller units and 114 Miller units
- β-galactosidase activity, mtrC-lacZ, Mean (mtrC-lacZ expression; strain WT (FA19/pLES94-mtrC), hormone 6.25 µM): 131 Miller units
- β-galactosidase activity, mtrC-lacZ, Mean (mtrC-lacZ expression; strain WT (FA19/pLES94-mtrC), hormone 12.5 µM): 148 Miller units
- β-galactosidase activity, mtrC-lacZ, Mean (mtrC-lacZ expression; strain WT (FA19/pLES94-mtrC), hormone 25 µM): 177 Miller units
- β-galactosidase activity, mtrC-lacZ, Mean (mtrC-lacZ expression; strain WT (FA19/pLES94-mtrC), hormone 50 µM): 224 Miller units
- mtrC-lacZ β-galactosidase activity, Mean (mtrC-lacZ expression; strain WT, 6.25 µM hormone): 137 Miller units
- β-galactosidase activity, Mean (mtrC-lacZ expression; strain WT, 6.25 µM hormone, second (right) untitled block of sheet Figure S10 (mtrC)): 44 Miller units
- mtrC-lacZ β-galactosidase activity, Mean (mtrC-lacZ expression; strain WT, 12.5 µM hormone): 155 Miller units
- β-galactosidase activity, Mean (mtrC-lacZ expression; strain WT, 12.5 µM hormone, second (right) untitled block of sheet Figure S10 (mtrC)): 54 Miller units
- mtrC-lacZ β-galactosidase activity, Mean (mtrC-lacZ expression; strain WT, 25 µM hormone): 162 Miller units
- β-galactosidase activity, Mean (mtrC-lacZ expression; strain WT, 25 µM hormone, second (right) untitled block of sheet Figure S10 (mtrC)): 60 Miller units
- mtrC-lacZ β-galactosidase activity, Mean (mtrC-lacZ expression; strain WT, 50 µM hormone): 182 Miller units
- β-galactosidase activity, Mean (mtrC-lacZ expression; strain WT, 50 µM hormone, second (right) untitled block of sheet Figure S10 (mtrC)): 99 Miller units
- activation of mtrC (mtrC-lacZ expression; strain producing MtrR R176E): clearly weaker activation
- β-galactosidase activity, mtrC-lacZ, Mean (mtrC-lacZ expression; strain ΔmtrR (FA19 ∆mtrR/pLES94-mtrC), hormone 6.25 µM): 210 Miller units
- β-galactosidase activity, mtrC-lacZ, Mean (mtrC-lacZ expression; strain ΔmtrR (FA19 ∆mtrR/pLES94-mtrC), hormone 12.5 µM): 218 Miller units
- β-galactosidase activity, mtrC-lacZ, Mean (mtrC-lacZ expression; strain ΔmtrR (FA19 ∆mtrR/pLES94-mtrC), hormone 25 µM): 243 Miller units
- β-galactosidase activity, mtrC-lacZ, Mean (mtrC-lacZ expression; strain ΔmtrR (FA19 ∆mtrR/pLES94-mtrC), hormone 50 µM): 255 Miller units
- β-galactosidase activity, mtrC-lacZ, Mean (mtrC-lacZ expression; strain ΔmtrR + mtrR D171A (pGCC3-mtrR D171A), hormone 6.25 µM): 149 Miller units
- β-galactosidase activity, mtrC-lacZ, Mean (mtrC-lacZ expression; strain ΔmtrR + mtrR D171A (pGCC3-mtrR D171A), hormone 12.5 µM): 157 Miller units
- β-galactosidase activity, mtrC-lacZ, Mean (mtrC-lacZ expression; strain ΔmtrR + mtrR D171A (pGCC3-mtrR D171A), hormone 25 µM): 167 Miller units
- β-galactosidase activity, mtrC-lacZ, Mean (mtrC-lacZ expression; strain ΔmtrR + mtrR D171A (pGCC3-mtrR D171A), hormone 50 µM): 163 Miller units
- mtrC-lacZ β-galactosidase activity, Mean (mtrC-lacZ expression; strain ΔmtrR + mtrR R176E, 6.25 µM hormone): 194 Miller units
- β-galactosidase activity, Mean (mtrC-lacZ expression; strain ΔmtrR + mtrR R176E, 6.25 µM hormone, second (right) untitled block of sheet Figure S10 (mtrC)): 80 Miller units
- mtrC-lacZ β-galactosidase activity, Mean (mtrC-lacZ expression; strain ΔmtrR + mtrR R176E, 12.5 µM hormone): 205 Miller units
- β-galactosidase activity, Mean (mtrC-lacZ expression; strain ΔmtrR + mtrR R176E, 12.5 µM hormone, second (right) untitled block of sheet Figure S10 (mtrC)): 81 Miller units
- mtrC-lacZ β-galactosidase activity, Mean (mtrC-lacZ expression; strain ΔmtrR + mtrR R176E, 25 µM hormone): 197 Miller units
- β-galactosidase activity, Mean (mtrC-lacZ expression; strain ΔmtrR + mtrR R176E, 25 µM hormone, second (right) untitled block of sheet Figure S10 (mtrC)): 94 Miller units
- mtrC-lacZ β-galactosidase activity, Mean (mtrC-lacZ expression; strain ΔmtrR + mtrR R176E, 50 µM hormone): 269 Miller units
- β-galactosidase activity, Mean (mtrC-lacZ expression; strain ΔmtrR + mtrR R176E, 50 µM hormone, second (right) untitled block of sheet Figure S10 (mtrC)): 89 Miller units
- β-galactosidase activity, mtrC-lacZ, Mean (mtrC-lacZ expression; strain ΔmtrR + mtrR WT (pGCC3-mtrR), hormone 6.25 µM): 116 Miller units
- β-galactosidase activity, mtrC-lacZ, Mean (mtrC-lacZ expression; strain ΔmtrR + mtrR WT (pGCC3-mtrR), hormone 12.5 µM): 113 Miller units
- β-galactosidase activity, mtrC-lacZ, Mean (mtrC-lacZ expression; strain ΔmtrR + mtrR WT (pGCC3-mtrR), hormone 25 µM): 138 Miller units
- β-galactosidase activity, mtrC-lacZ, Mean (mtrC-lacZ expression; strain ΔmtrR + mtrR WT (pGCC3-mtrR), hormone 50 µM): 158 Miller units
- mtrC-lacZ β-galactosidase activity, Mean (mtrC-lacZ expression; strain ΔmtrR + mtrR WT, 6.25 µM hormone): 106 Miller units
- β-galactosidase activity, Mean (mtrC-lacZ expression; strain ΔmtrR + mtrR WT, 6.25 µM hormone, second (right) untitled block of sheet Figure S10 (mtrC)): 17 Miller units
- mtrC-lacZ β-galactosidase activity, Mean (mtrC-lacZ expression; strain ΔmtrR + mtrR WT, 12.5 µM hormone): 117 Miller units
- β-galactosidase activity, Mean (mtrC-lacZ expression; strain ΔmtrR + mtrR WT, 12.5 µM hormone, second (right) untitled block of sheet Figure S10 (mtrC)): 27 Miller units
- mtrC-lacZ β-galactosidase activity, Mean (mtrC-lacZ expression; strain ΔmtrR + mtrR WT, 25 µM hormone): 136 Miller units
- β-galactosidase activity, Mean (mtrC-lacZ expression; strain ΔmtrR + mtrR WT, 25 µM hormone, second (right) untitled block of sheet Figure S10 (mtrC)): 36 Miller units
- mtrC-lacZ β-galactosidase activity, Mean (mtrC-lacZ expression; strain ΔmtrR + mtrR WT, 50 µM hormone): 154 Miller units
- β-galactosidase activity, Mean (mtrC-lacZ expression; strain ΔmtrR + mtrR WT, 50 µM hormone, second (right) untitled block of sheet Figure S10 (mtrC)): 45 Miller units
- mtrC-lacZ β-galactosidase activity, Mean (mtrC-lacZ expression; strain ΔmtrR, 6.25 µM hormone): 273 Miller units
- β-galactosidase activity, Mean (mtrC-lacZ expression; strain ΔmtrR, 6.25 µM hormone, second (right) untitled block of sheet Figure S10 (mtrC)): 94 Miller units
- mtrC-lacZ β-galactosidase activity, Mean (mtrC-lacZ expression; strain ΔmtrR, 12.5 µM hormone): 263 Miller units
- β-galactosidase activity, Mean (mtrC-lacZ expression; strain ΔmtrR, 12.5 µM hormone, second (right) untitled block of sheet Figure S10 (mtrC)): 89 Miller units
- mtrC-lacZ β-galactosidase activity, Mean (mtrC-lacZ expression; strain ΔmtrR, 25 µM hormone): 239 Miller units
- β-galactosidase activity, Mean (mtrC-lacZ expression; strain ΔmtrR, 25 µM hormone, second (right) untitled block of sheet Figure S10 (mtrC)): 98 Miller units
- mtrC-lacZ β-galactosidase activity, Mean (mtrC-lacZ expression; strain ΔmtrR, 50 µM hormone): 257 Miller units
- β-galactosidase activity, Mean (mtrC-lacZ expression; strain ΔmtrR, 50 µM hormone, second (right) untitled block of sheet Figure S10 (mtrC)): 101 Miller units
- β-galactosidase activity, Miller units (single replicate) (mtrC-lacZ expression; ΔmtrR + mtrR WT in trans, 6.25 µM, first data set (c15-c36)): 87 Miller units and 127 Miller units
- β-galactosidase activity, Miller units (single replicate) (mtrC-lacZ expression; ΔmtrR + mtrR WT in trans, 6.25 µM, second data set (c53-c74)): 22 Miller units and 9 Miller units and 12 Miller units and 27 Miller units
- β-galactosidase activity, Miller units (single replicate) (mtrC-lacZ expression; ΔmtrR + mtrR WT in trans, 12.5 µM, first data set (c15-c36)): 84 Miller units and 130 Miller units
- β-galactosidase activity, Miller units (single replicate) (mtrC-lacZ expression; ΔmtrR + mtrR WT in trans, 12.5 µM, second data set (c53-c74)): 33 Miller units and 23 Miller units and 27 Miller units
- β-galactosidase activity, Miller units (single replicate) (mtrC-lacZ expression; ΔmtrR + mtrR WT in trans, 25 µM, first data set (c15-c36)): 124 Miller units and 127 Miller units
- β-galactosidase activity, Miller units (single replicate) (mtrC-lacZ expression; ΔmtrR + mtrR WT in trans, 25 µM, second data set (c53-c74)): 45 Miller units and 34 Miller units and 39 Miller units and 27 Miller units
- β-galactosidase activity, Miller units (single replicate) (mtrC-lacZ expression; ΔmtrR + mtrR WT in trans, 50 µM, first data set (c15-c36)): 156 Miller units and 168 Miller units
- β-galactosidase activity, Miller units (single replicate) (mtrC-lacZ expression; ΔmtrR + mtrR WT in trans, 50 µM, second data set (c53-c74)): 51 Miller units and 40 Miller units and 39 Miller units and 48 Miller units
- β-galactosidase activity, Miller units (single replicate) (mtrC-lacZ expression; ΔmtrR, 6.25 µM, first data set (c15-c36)): 214 Miller units and 261 Miller units and 306 Miller units and 310 Miller units
- β-galactosidase activity, Miller units (single replicate) (mtrC-lacZ expression; ΔmtrR, 6.25 µM, second data set (c53-c74)): 115 Miller units and 96 Miller units and 95 Miller units and 69 Miller units
- β-galactosidase activity, Miller units (single replicate) (mtrC-lacZ expression; ΔmtrR, 12.5 µM, first data set (c15-c36)): 280 Miller units and 263 Miller units and 247 Miller units and 264 Miller units
- β-galactosidase activity, Miller units (single replicate) (mtrC-lacZ expression; ΔmtrR, 12.5 µM, second data set (c53-c74)): 97 Miller units and 87 Miller units and 92 Miller units and 78 Miller units
- β-galactosidase activity, Miller units (single replicate) (mtrC-lacZ expression; ΔmtrR, 25 µM, first data set (c15-c36)): 208 Miller units and 262 Miller units and 216 Miller units and 271 Miller units
- β-galactosidase activity, Miller units (single replicate) (mtrC-lacZ expression; ΔmtrR, 25 µM, second data set (c53-c74)): 139 Miller units and 80 Miller units and 83 Miller units and 89 Miller units
- β-galactosidase activity, Miller units (single replicate) (mtrC-lacZ expression; ΔmtrR, 50 µM, first data set (c15-c36)): 240 Miller units and 239 Miller units and 224 Miller units and 327 Miller units
- β-galactosidase activity, Miller units (single replicate) (mtrC-lacZ expression; ΔmtrR, 50 µM, second data set (c53-c74)): 128 Miller units and 93 Miller units and 88 Miller units and 96 Miller units
- binding to MtrR D171A (MtrR D171A): no observable binding
